# Legend:
# [1] = tested on: CD-1 mice; assay: Maximum tolerable dose (MTD) after i.v. injection; details: for Maximum tolerable dose (MTD): single i.v. injection, <20% body weight loss
# Description: (§1) The maximum tolerable dose (MTD) of the two conjugates were also evaluated in CD-1 mice (FIG. 9). […] The sulfo-DBCO-TEG-VC-DOX was injected using PBS with only one time administration.
# (§2) The maximum tolerable dose (MTD) of the two conjugates were also evaluated in mice (FIG. 15).
# (§3) A model DBCO-paclitaxel conjugate, PTX-TEG-DBCO was prepared through well-established reactions.
# [2] = Maximum tolerable dose (MTD) after i.v. injection; details: CD-1, mouse, in vivo
# Description: as §1, §2, §3
# [3] = physchem
# Description: Two DBCO-doxorubicin conjugates were synthesized with a cathepsin-B responsive peptide linker (VC). A tetraethyleneglycol unit was incorporated to improve the solubility of the conjugates (FIG. 7). A sulfonic acid-containing conjugate, sulfo-DBCO-TEG-VC-DOX was also prepared to further improve the solubility of the conjugate. […] The solubility of the two conjugates were first tested.
# DBCO-DM1 conjugates (FIG. 11) were then synthesized through well-established chemistries. A polyethylene glycol 5000 was used in the design to serve the following purpose: 1. […] To increase the hydrophilicity of the drug conjugate such that its passive uptake in non-azide labeled cells can be reduced; 3. To increase the blood circulation half-time (pharmacokinetics) of the molecule in vivo.
# [4] = tested on: HepG2 liver cancer cells; assay: Confocal imaging of azido-sugar labeled cells; assay type: cell-based; details: DBCO-Cy5 stain
# Description: Cells were seeded onto coverslips in a 6-well plate at a cell density of 40 k/well. Ac4GalNAz (AAG) or AAG derivatives were added with a final concentration of 50 μM and the cells were incubated at 37° C. for 72 h. The medium was removed and washed with PBS for three times. DBCO-Cy5 (25 μM) in Opti-MEM was then added and the cells were incubated for another 1 h. Then the medium was removed, and the cells were washed with PBS three times. 4% paraformaldehyde (PFA) solution was added to fix the cells for 10 min, followed by staining of cell nucleus with Hoechst (1 μg/mL) and staining of cell membrane with cell mask orange (5 ug/mL) for 10 min. The coverslips were mounted on microscope slides with the addition of ProLong Gold antifade reagent, and the prepared sample was stored in dark for imaging.
# [5] = tested on: HepG2 (liver cancer) cells; assay: Metabolic azido-sugar cell labeling, DBCO-Cy5 detection by flow cytometry; assay type: cell-based; details: for Cell labeling (Cy5 fluorescence on the cell surface): 50 μM sugar, 72 h, DBCO-Cy5 25 μM, no UV
# Description: (§4) These cells were incubated with Ac4GalNAz (AAG), Ac3GalNAzEt (AAG-Et), and PBS respectively for three days.
# (§5) It is known that galactosamine can be preferentially taken up by hepatocytes (a type of liver cells) due to the presence of cell receptors such as asialoglycoprotein receptor (ASGPR). Tetraacetyl-N-azidoacetylgalactosamine (AAG) is relative hydrophobic and can passively diffuse into cells through hydrophobic interactions with the lipid cell membrane while N-azidoacetylgalactosamine (AG) is too hydrophilic to penetrate the lipid barrier by passive diffusion. Therefore, AG can only be taken up by cells through receptor-mediated endocytosis.
# (§6) Cells were seeded onto coverslips in a 6-well plate at a cell density of 40 k/well. AAG or AAG derivatives were added and incubated with cells for 72 h. […] The opti-MEM was then removed and cells were washed with PBS three times. Cells were lifted by incubating with trypsin solution (100 μL) at 37° C. for 5 min and transferred to test tubes with addition of 4% PFA solution (0.4 mL). Ten thousand cells per sample were analyzed by flow cytometry and data analysis was performed on the FCS Express software.
# (§7) AAG-Nb with a final concentration of 50 μM was added. UV light (10 mW/m^2) was applied for 15 min at the start of incubation, and the cells were further incubated for 72 h. Cells without UV irradiation were continuously incubated for 72 h. Cell samples for flow cytometry were then prepared following the above-mentioned procedures.
# [6] = tested on: MDA-MB-231 (triple negative breast cancer) cells; assay: as above; assay type: cell-based; details: 50 μM sugar, 72 h, DBCO-Cy5 25 μM, no UV
# Description: as §4, §5, §6, §7
# [7] = tested on: Jurkat (lymphoma) cells; assay: as above; assay type: cell-based; details: 50 μM sugar, 72 h, DBCO-Cy5 25 μM, no UV
# Description: as §4, §5, §6, §7
# [8] = tested on: HepG2 liver cancer cells; assay: SDS-PAGE analysis of cells treated with azido-sugars; assay type: cell-based; details: 72 h, DBCO-Cy5 25 μM
# Description: HepG2 liver cancer cells were seeded onto 6-well plate at a cell density of 40 k/well. Different azido-sugars at different concentrations were added and incubated with cells for 72 h. After removal of medium and multiple washing steps, DBCO-Cy5 (25 μM) in opti-MEM was added and incubated with cells at 37° C. for 1 h. The opti-MEM was then removed and cells were washed with PBS three times. The cells were homogenized in 150 μL of lysis buffer (RIPA) containing protease inhibitor. The lysate was incubated at 4° C. for 30 min, followed by centrifugation at 5000 rcf for 5 min to remove insoluble debris. The total concentration of soluble protein in each sample was determined by bicinchoninic acid (BCA) assay and adjusted to the same concentration. 4× loading buffer was added to each sample and 15 μL samples containing 20 μg protein were loaded onto 10% SDS-PAGE gel after heating at 95° C. The gel was run for 60 min under 150 V. Cy-5 fluorescence was imaged by Imagequant LAS 4010 Luminescent image analyzer and the gel was further stained by coomassie blue
# [9] = tested on: HepG2 liver cancer cells; assay: MTT cell viability assay of azido-sugars; assay type: cell-based; details: up to 200 μM, 72 h
# Description: HepG2 liver cancer cells were seeded onto coverslips in a 6-well plate at a cell density of 40 k/well. Different azido-sugars (AG, AAG, and AAM) at different concentrations (50 μM-200 μM) were added, and the cells were incubated at 37° C. for 72 h. The medium was removed. Then 20 μL 3-(4,5-dimethyl-2-thiazolyl)-2,5-diphenyl-2H-tetrazolium bromide (MTT) (5 mg/mL in PBS) was added and cultured at 37° C. for 4 h. MTT is a substrate that provides a colorimetric signal in response to viable mitochondria. Following solubilization by 100 μl DMSO, absorbance at 570 nm was measured using a plate reader.
# [10] = tested on: a variety of breast cancer cell lines; details: down to; cited from earlier work
# [11] = tested on: MDA-MB-231 breast cancer cell; assay: MTT assay to evaluate in vitro cytotoxicity; assay type: cell-based; details: 72 hours
# Description: Standard MTT protocol was followed to evaluate the cytotoxicity of DBCO-drug conjugate. Briefly, MDA-MB-231 cells were seeded in 96-well plate at 3000 cells/well in 100 μL DMEM medium and were allowed to attach overnight. 10 μL DBCO-drug conjugate solution was added into the well to the designated final concentration and incubated at 37° C. for 72 hours. PBS was taken as 100% control. 20 μL 5 mg/mL MTT solution was added to the medium and incubated at 37° C. for 3 hours.
compound,measurement,setting,value
COc1cccc2c1C(=O)c1c(O)c3c(c(O)c1C2=O)C[C@@](O)(C(=O)CO)C[C@@H]3O[C@H]1C[C@H](NC(=O)OCc2ccc(NC(=O)C(CCCNC(N)=O)NC(=O)[C@@H](NC(=O)CCOCCOCCOCCOCCNC(=O)CCC(=O)N3Cc4ccccc4C#Cc4ccccc43)C(C)C)cc2)[C@H](O)[C@H](C)O1 (stereo partly shown) [DBCO-TEG-VC-DOX],Body weight change,"[1]; mouse, in vivo",No significant body weight loss
same,MTD,[2],> 204 mg/kg
same,solubility,[3]; aqueous buffer,< 50 µM
same,solubility,[3]; aqueous with cosolvent or surfactant or cyclodextrin,~3500 µg/mL
"[N-]=[N+]=NCC(=O)N[C@H]1C(O)O[C@H](CO)[C@H](O)[C@@H]1O (stereo partly shown) [AG, N-azidoacetylgalactosamine]",Localization of labeling (confocal microscopy),[4],mainly localized on cell membrane
same,Cell labeling (Cy5 fluorescence on the cell surface),[5],positively labeled
same,Concentration dependence of labeling,[5]; concentration increased from 25 μM to 200 μM,increased significantly
same,Cell labeling (Cy5 fluorescence on the cell surface),[6],only HepG2 cells were positively labeled
same,Cell labeling (Cy5 fluorescence on the cell surface),[7],only HepG2 cells were positively labeled
same,"Azide groups on cell surface membrane protein (SDS-PAGE, Cy5 fluorescence)",[8],did containing azide groups
same,Toxicity to cells (MTT),[9],not toxic
"COc1cc2cc(c1Cl)N(C)C(=O)C[C@H](OC(=O)[C@H](C)N(C)C(=O)CCS)[C@]1(C)O[C@H]1[C@H](C)[C@@H]1C[C@@](O)(NC(=O)O1)[C@H](OC)/C=C/C=C(\C)C2 [DM1, Mertansine]",in vitro IC50 value,[10],tens
same,IC50,[11],~0.03 nM
COc1cccc2c1C(=O)c1c(O)c3c(c(O)c1C2=O)C[C@@](O)(C(=O)CO)C[C@@H]3O[C@H]1C[C@H](NC(=O)OCc2ccc(NC(=O)C(CCCNC(N)=O)NC(=O)[C@@H](NC(=O)CCC(=O)NCCOCCOCCOCCOCCC(=O)NCC(C(=O)NCCC(=O)N3Cc4ccccc4C#Cc4ccccc43)S(=O)(=O)O)C(C)C)cc2)[C@H](O)[C@H](C)O1 (stereo partly shown) [sulfo-DBCO-TEG-VC-DOX],Body weight change,"[1]; CD-1 mice, one time administration in PBS, up to highest dose used",No body weight decrease
same,MTD,[2]; iv,> 120 mg/kg
same,solubility,[3]; aqueous buffer,8000 to 10000 µg/mL
"CC(=O)OC[C@H]1OC(OC(C)=O)[C@@H](NC(=O)CN=[N+]=[N-])[C@@H](OC(C)=O)[C@@H]1OC(C)=O (stereo partly shown) [AAM, tetraacetyl-N-azidoacetylmannosamine]",Cell labeling (Cy5 fluorescence on the cell surface),[5],efficiently labeled
same,Cell labeling (Cy5 fluorescence on the cell surface),[6],efficiently labeled
same,Cell labeling (Cy5 fluorescence on the cell surface),[7],efficiently labeled
"CC(=O)OC[C@H]1OC(OC(C)=O)[C@H](NC(=O)CN=[N+]=[N-])[C@@H](OC(C)=O)[C@H]1OC(C)=O (stereo partly shown) [AAG, Tetraacetyl-N-azidoacetylgalactosamine]",Cell labeling (Cy5 fluorescence on the cell surface),[5],efficiently labeled
same,Cell labeling (Cy5 fluorescence on the cell surface),[6],efficiently labeled
same,Cell labeling (Cy5 fluorescence on the cell surface),[7],efficiently labeled
"N.N.[Cl][Pt][Cl] [cisplatin, reference compound]",Maximum tolerable dose (MTD),[1]; CD-1 mice,about 5 mg/kg
same,Maximum tolerable dose (MTD),"[1]; CD-1 mice, listed as cis-platin",5 mg/kg
CC(=O)O[C@H]1C(=O)[C@@]2(C)C([C@H](OC(=O)c3ccccc3)[C@]3(O)C[C@H](OC(=O)[C@H](OC(=O)COCCOCCOCCOCCNC(=O)CCC(=O)N4Cc5ccccc5C#Cc5ccccc54)[C@@H](NC(=O)c4ccccc4)c4ccccc4)C(C)=C1C3(C)C)[C@]1(OC(C)=O)CO[C@@H]1C[C@@H]2O (stereo partly shown) [PTX-TEG-DBCO],MTD,[2]; iv,> 200 mg/kg
